Experimental data taken from ChEMBL document CHEMBL4680265, “Anti-tubulin agent vinorelbine inhibits metastasis of cancer cells by regulating epithelial-mesenchymal transition” (Eur J Med Chem, 2020).
Active and inactive are the calls of the source. The calls are words filed in the database; no cut-off is given here.

Tests used:
[1] = test system: HepG2; assay: Induction of cell cycle arrest in human HepG2 cells assessed as increase in G2/M phase accumulation at 0.1 to 10 uM incubated for 24 hrs by propidium iodide staining based flow cytometry analysis; format: functional; conditions: dose 0.1-10 µM
[2] = test system: NCI-H1975; assay: Induction of apoptosis in human NCI-H1975 cells assessed as increase in early apoptotic cells at 1 to 100 nM incubated for 48 hrs by annexin V-FITC and PI staining based flow cytometry analysis; format: functional, cell-based; conditions: dose 1-100 nM
[3] = test system: NCI-H1975; assay: Induction of cell cycle arrest in human NCI-H1975 cells assessed as decrease in cyclin B1 level at 1 to 100 nM incubated for 24 hrs by Western blot analysis; format: functional, cell-based; conditions: dose 1-100 nM
[4] = test system: NCI-H1975; assay: Antimigratory activity against human NCI-H1975 cells assessed as reduction in migration at 10 nM measured after 96 hrs by scratch wound healing based inverted microscopic analysis relative to control; format: functional
[5] = test system: HepG2; assay: Inhibition of epithelial-mesenchymal transition in human HepG2 cells assessed as downregulation of MMP-2 by Western blot analysis; format: functional, cell-based; conditions: dose 0.1-10 µM
[6] = test system: HepG2; assay: Induction of apoptosis in human HepG2 cells assessed as increase in Bax expression at 0.1 to 10 uM incubated for 48 hrs by Western blot analysis; format: functional, cell-based; conditions: dose 0.1-10 µM
[7] = test system: HepG2; assay: Inhibition of epithelial-mesenchymal transition in human HepG2 cells assessed as decrease in N-cadherin expression at 0.1 to 10 uM by Western blot analysis; format: functional, cell-based; conditions: dose 0.1-10 µM
[8] = test system: HCT-116; assay: Cytotoxicity against human HCT-116 cells assessed as effect on cell morphology incubated for 48 hrs by DAPI staining based fluorescence microscopy; format: functional; conditions: dose 0.01-1 µM
[9] = test system: NCI-H1975; assay: Inhibition of epithelial-mesenchymal transition in human NCI-H1975 cells assessed as downregulation of MMP-2 by Western blot analysis; format: functional, cell-based; conditions: dose 1-100 nM
[10] = test system: HepG2; assay: Antimigratory activity against human HepG2 cells assessed as reduction in migration at 1 nM measured after 96 hrs by scratch wound healing based inverted microscopic analysis relative to control; format: functional
[11] = test system: HepG2; assay: Antimigratory activity against human HepG2 cells assessed as reduction in migration at 10 nM measured after 96 hrs by scratch wound healing based inverted microscopic analysis relative to control; format: functional
[12] = test system: NCI-H1975; assay: Inhibition of epithelial-mesenchymal transition in human NCI-H1975 cells assessed as downregulation of MMP-9 by Western blot analysis; format: functional, cell-based; conditions: dose 1-100 nM
[13] = test system: HCT-116; assay: Antimigratory activity against human HCT-116 cells assessed as reduction in migration at 10 nM measured after 96 hrs by scratch wound healing based inverted microscopic analysis relative to control; format: functional
[14] = test system: HCT-116; assay: Antiinvasive activity against human HCT-116 cells assessed as reduction in invasion at 1 to 10 nM measured after 48 hrs by DAPI staining based transwell assay; format: functional, cell-based; conditions: dose 1-10 nM
[15] = test system: NCI-H1975; assay: Induction of apoptosis in human NCI-H1975 cells assessed as increase in late apoptotic cells at 1 to 100 nM incubated for 48 hrs by annexin V-FITC and PI staining based flow cytometry analysis; format: functional, cell-based; conditions: dose 1-100 nM
[16] = test system: HCT-116; assay: Inhibition of epithelial-mesenchymal transition in human HCT-116 cells assessed as downregulation of Snail-1 by Western blot analysis; format: functional, cell-based; conditions: dose 0.01-1 µM
[17] = test system: HepG2; assay: Inhibition of colony formation in human HepG2 cells at 0.1 to 10 uM incubated for 3 to 4 days by crystal violet staining based assay; format: functional, cell-based; conditions: dose 0.1-10 µM, time 3-4 day
[18] = test system: HCT-116; assay: Antimigratory activity against human HCT-116 cells assessed as reduction in migration at 5 nM measured after 96 hrs by scratch wound healing based inverted microscopic analysis relative to control; format: functional
[19] = test system: HepG2; assay: Antimigratory activity against human HepG2 cells assessed as reduction in migration at 0.1 nM measured after 96 hrs by scratch wound healing based inverted microscopic analysis relative to control; format: functional
[20] = test system: HepG2; assay: Induction of apoptosis in human HepG2 cells assessed as decrease in Bcl-2 expression at 0.1 to 10 uM incubated for 48 hrs by Western blot analysis; format: functional, cell-based; conditions: dose 0.1-10 µM
[21] = test system: NCI-H1975; assay: Cytotoxicity against human NCI-H1975 cells assessed as effect on cell morphology incubated for 48 hrs by DAPI staining based fluorescence microscopy; format: functional; conditions: dose 1-100 nM
[22] = test system: HepG2; assay: Inhibition of epithelial-mesenchymal transition in human HepG2 cells assessed as downregulation of Snail-1 by Western blot analysis; format: functional, cell-based; conditions: dose 0.1-10 µM
[23] = test system: NCI-H1975; assay: Inhibition of colony formation in human NCI-H1975 cells at 1 to 100 nM incubated for 3 to 4 days by crystal violet staining based assay; format: functional, cell-based; conditions: dose 1-100 nM, time 3-4 day
[24] = test system: HCT-116; assay: Induction of cell cycle arrest in human HCT-116 cells assessed as increase in G2/M phase accumulation at 0.01 to 1 uM incubated for 24 hrs by propidium iodide staining based flow cytometry analysis; format: functional; conditions: dose 0.01-1 µM
[25] = test system: NCI-H1975; assay: Antiinvasive activity against human NCI-H1975 cells assessed as reduction in invasion at 1 to 10 nM measured after 48 hrs by DAPI staining based transwell assay; format: functional, cell-based; conditions: dose 1-10 nM
[26] = test system: NCI-H1975; assay: Induction of cell cycle arrest in human NCI-H1975 cells assessed as increase in G2/M phase accumulation at 100 nM incubated for 24 hrs by propidium iodide staining based flow cytometry analysis relative to control; format: functional
[27] = test system: HCT-116; assay: Induction of cell cycle arrest in human HCT-116 cells assessed as decrease in cyclin B1 level at 0.01 to 1 uM incubated for 24 hrs by Western blot analysis; format: functional, cell-based; conditions: dose 0.01-1 µM
[28] = test system: HepG2; assay: Cytotoxicity against human HepG2 cells assessed as reduction in cell viability incubated for 48 hrs by MTT assay; format: functional, cell-based; conditions: HepG2, 48 h
[29] = test system: HCT-116; assay: Antimigratory activity against human HCT-116 cells assessed as reduction in migration at 1 nM measured after 96 hrs by scratch wound healing based inverted microscopic analysis relative to control; format: functional
[30] = test system: HepG2; assay: Antiinvasive activity against human HepG2 cells assessed as reduction in invasion at 0.1 to 10 nM measured after 48 hrs by DAPI staining based transwell assay; format: functional, cell-based; conditions: dose 0.1-10 nM

## CCC1=C[C@@H]2CN(C1)Cc1c([nH]c3ccccc13)[C@@](C(=O)OC)(c1cc3c(cc1OC)N(C)[C@H]1[C@@](O)(C(=O)OC)[C@H](OC(C)=O)[C@]4(CC)C=CCN5CC[C@]31[C@@H]54)C2 [VINORELBINE]
[1]
  Activity: Active
[2]
  Activity: Active
[3]
  Activity: Active
[4]
  inhibition at 0.01 µM: 70.5%
[5]
  inhibition: Dose-dependent effect
[6]
  Activity: Active
[7]
  inhibition: Active
[8]
  Activity: Dose-dependent effect
[9]
  inhibition: Dose-dependent effect
[10]
  inhibition at 0.001 µM: 33.1%
[11]
  inhibition at 0.01 µM: 47.4%
[12]
  inhibition: Dose-dependent effect
[13]
  inhibition at 0.01 µM: 50.9%
[14]
  inhibition: Active
[15]
  Activity: Active
[16]
  inhibition: Dose-dependent effect
[17]
  inhibition: Active
[18]
  inhibition at 0.005 µM: 28.5%
[19]
  inhibition at 0.0001 µM: 11.7%
[20]
  Activity: Active
[21]
  Activity: Dose-dependent effect
[22]
  inhibition: Dose-dependent effect
[23]
  inhibition: Active
[24]
  Activity: Active
[25]
  inhibition: Active
[26]
  Activity: 51.85%
[27]
  Activity: inactive
[28]
  IC50: 110 nM
[29]
  inhibition at 0.001 µM: 13%
[30]
  inhibition: Active
